Test results reported in patent publication US20250059198A1, “BRM DEGRADING COMPOUNDS AND ASSOCIATED METHODS OF USE” (Arvinas Operations, Inc., priority 2021, published 2025).

Biological target: T1, BRM (Homo sapiens, UniProt P51531)
T1 construct: Western Blot Screen of BRM Degradation in SW1573 Cells; endogenous in cells; host or cells: SW1573 cells
Assay: BRM degradation (Dmax and DC50) in SW1573 cells, Western blot screen / In-Cell Western screen
Format: cell-based
Conditions: overnight (18-20 hours) treatment; for Dmax: read-out: Dmax (%)** (% degraded)
Method in brief: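 SW1573 cells were treated with compound for 18–20 h (final 0.1% DMSO). BRM was quantified either by Western blot of RIPA lysates or by fixed-cell In-Cell Western (LI-COR, 800/680 nm), each normalised to alpha-tubulin, giving Dmax and DC50.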

T1 sequence (P51531 whole entry): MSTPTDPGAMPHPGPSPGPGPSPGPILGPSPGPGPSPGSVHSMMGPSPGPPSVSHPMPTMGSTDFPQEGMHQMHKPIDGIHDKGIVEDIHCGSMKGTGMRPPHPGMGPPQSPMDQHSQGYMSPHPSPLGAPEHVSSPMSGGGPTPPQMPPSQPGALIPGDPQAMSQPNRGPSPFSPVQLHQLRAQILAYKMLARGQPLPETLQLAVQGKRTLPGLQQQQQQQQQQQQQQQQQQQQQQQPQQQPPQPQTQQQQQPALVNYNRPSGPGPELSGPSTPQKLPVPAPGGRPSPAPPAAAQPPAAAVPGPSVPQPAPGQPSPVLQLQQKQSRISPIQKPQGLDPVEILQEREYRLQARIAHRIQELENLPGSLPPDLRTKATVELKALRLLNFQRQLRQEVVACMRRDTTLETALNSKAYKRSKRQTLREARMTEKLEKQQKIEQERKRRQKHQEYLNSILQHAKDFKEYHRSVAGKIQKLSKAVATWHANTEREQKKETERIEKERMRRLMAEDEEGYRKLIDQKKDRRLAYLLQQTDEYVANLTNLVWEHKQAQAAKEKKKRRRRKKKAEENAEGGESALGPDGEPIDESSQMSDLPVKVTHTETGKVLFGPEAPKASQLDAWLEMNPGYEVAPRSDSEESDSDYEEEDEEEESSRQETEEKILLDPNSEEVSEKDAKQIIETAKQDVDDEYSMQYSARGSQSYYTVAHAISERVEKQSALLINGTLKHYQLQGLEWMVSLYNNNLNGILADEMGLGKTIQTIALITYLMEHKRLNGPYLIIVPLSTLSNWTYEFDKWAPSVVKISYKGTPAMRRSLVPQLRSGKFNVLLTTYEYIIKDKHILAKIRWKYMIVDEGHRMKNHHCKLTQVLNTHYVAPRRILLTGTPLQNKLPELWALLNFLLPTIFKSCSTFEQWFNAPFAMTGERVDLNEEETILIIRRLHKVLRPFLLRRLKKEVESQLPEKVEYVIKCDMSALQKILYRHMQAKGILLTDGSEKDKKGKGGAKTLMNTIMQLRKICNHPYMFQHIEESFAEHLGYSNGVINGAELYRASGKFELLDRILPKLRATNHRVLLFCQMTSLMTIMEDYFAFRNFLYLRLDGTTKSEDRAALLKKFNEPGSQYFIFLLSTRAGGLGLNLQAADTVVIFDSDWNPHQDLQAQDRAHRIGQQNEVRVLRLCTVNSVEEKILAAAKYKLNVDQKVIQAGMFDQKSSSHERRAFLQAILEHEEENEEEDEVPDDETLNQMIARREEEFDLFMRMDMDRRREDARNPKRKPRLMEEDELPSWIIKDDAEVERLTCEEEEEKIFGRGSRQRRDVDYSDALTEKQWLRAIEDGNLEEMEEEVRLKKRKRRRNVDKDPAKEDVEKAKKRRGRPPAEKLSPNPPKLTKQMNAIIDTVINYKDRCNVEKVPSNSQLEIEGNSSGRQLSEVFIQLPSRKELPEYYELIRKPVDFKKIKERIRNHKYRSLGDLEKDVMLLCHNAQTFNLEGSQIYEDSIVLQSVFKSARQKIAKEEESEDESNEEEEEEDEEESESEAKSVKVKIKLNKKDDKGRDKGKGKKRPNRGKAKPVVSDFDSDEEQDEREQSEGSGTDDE

SMILES	DC50	Dmax
Cc1ncsc1-c1ccc([C@H](C)NC(=O)[C@@H]2C[C@@H](O)CN2C(=O)[C@@H](c2cc(N3CCC(CN4CCC5(CC4)CC(N4CCO[C@@H](CNC6CCN(c7cc(-c8ccccc8O)nnc7N)CC6)C4)C5)CC3)no2)C(C)C)cc1 [Compound 113, (2S,4R)-1-[(2R)-2-{3-[4-({2-[(2S)-2-[({1-[3-amino-6-(2-hydroxyphenyl)pyridazin-4-yl]piperidin-4-yl}amino)methyl]morpholin-4-yl]-7-azaspiro[3.5]nonan-7-yl}methyl)piperidin-1-yl]-1,2-oxazol-5-yl}-3-methylbutanoyl]-4-hydroxy-N-[(1S)-1-[4-(4-methyl-1,3-thiazol-5-yl)phenyl]ethyl]pyrrolidine-2-carboxamide]	< 2.5 nM	> 75%
CC(C)[C@H](C(=O)N1C[C@H](O)C[C@H]1C(=O)N[C@@H](C)c1ccc(-c2ccnn2C)cc1)c1cc(N2CCC(CN3CCC(O[C@H]4C[C@H](OC(=O)N5CCN(c6cc(-c7ccccc7O)nnc6N)CC5)C4)CC3)CC2)no1 [Compound 114, (1r,3r)-3-({1-[(1-{5-[(2S)-1-[(2S,4R)-4-hydroxy-2-{[(1S)-1-[4-(1-methyl-1H-pyrazol-5-yl)phenyl]ethyl]carbamoyl}pyrrolidin-1-yl]-3-methyl-1-oxobutan-2-yl]-1,2-oxazol-3-yl}piperidin-4-yl)methyl]piperidin-4-yl}oxy)cyclobutyl 4-[3-amino-6-(2-hydroxyphenyl)pyridazin-4-yl]piperazine-1-carboxylate]	≥ 30 nM	–
Cc1ncsc1-c1ccc([C@H](C)NC(=O)[C@@H]2C[C@@H](O)CN2C(=O)[C@H](c2cc(N3CCC(OC(=O)N4CCC(O[C@H]5C[C@H](Oc6cc(N7C8CCC7CN(c7cc(-c9ccccc9O)nnc7N)C8)ccn6)C5)CC4)CC3)no2)C(C)C)cc1 [Compound 116, 1-{5-[(2S)-1-[(2S,4R)-4-hydroxy-2-([(1S)-1-[4-(4-methyl-1,3-thiazol-5-yl)phenyl]ethyl]carbamoyl}pyrrolidin-1-yl]-3-methyl-1-oxobutan-2-yl]-1,2-oxazol-3-yl}piperidin-4-yl 4-[(1r,3r)-3-[(4-{3-[3-amino-6-(2-hydroxyphenyl)pyridazin-4-yl]-3,8-diazabicyclo[3.2.1]octan-8-yl}pyridin-2-yl)oxy]cyclobutoxy]piperidine-1-carboxylate]	< 2.5 nM	> 75%
Cc1ncsc1-c1ccc([C@H](C)NC(=O)[C@@H]2C[C@@H](O)CN2C(=O)[C@@H](c2cc(N3CCC(OC(=O)N4CCC(O[C@H]5C[C@H](Oc6cc(N7C8CCC7CN(c7cc(-c9ccccc9O)nnc7N)C8)ccn6)C5)CC4)CC3)no2)C(C)C)cc1 [Compound 117, 1-{5-[(2R)-1-[(2S,4R)-4-hydroxy-2-{[(1S)-1-[4-(4-methyl-1,3-thiazol-5-yl)phenyl]ethyl]carbamoyl}pyrrolidin-1-yl]-3-methyl-1-oxobutan-2-yl]-1,2-oxazol-3-yl}piperidin-4-yl 4-[(1r,3r)-3-[(4-{3-[3-amino-6-(2-hydroxyphenyl)pyridazin-4-yl]-3,8-diazabicyclo[3.2.1]octan-8-yl}pyridin-2-yl)oxy]cyclobutoxy]piperidine-1-carboxylate]	< 2.5 nM	> 75%
Cc1ncsc1-c1ccc([C@H](C)NC(=O)[C@@H]2C[C@@H](O)CN2C(=O)[C@H](c2cc(N3CCN(C(=O)[C@H]4C[C@H](Oc5cc(N6C7CCC6CN(c6cc(-c8ccccc8O)nnc6N)C7)ccn5)C4)CC3)no2)C(C)C)cc1 [Compound 118, (2S,4R)-4-hydroxy-N-[(1S)-1-[4-(4-methyl-1,3-thiazol-5-yl)phenyl]ethyl]-1-[(2S)-3-methyl-2-(3-{4-[(1r,3r)-3-[(4-{3-[3-amino-6-(2-hydroxyphenyl)pyridazin-4-yl]-3,8-diazabicyclo[3.2.1]octan-8-yl}pyridin-2-yl)oxy]cyclobutanecarbonyl]piperazin-1-yl}-1,2-oxazol-5-yl)butanoyl]pyrrolidine-2-carboxamide]	< 2.5 nM	> 75%
Cc1ncsc1-c1ccc([C@H](C)NC(=O)[C@@H]2C[C@@H](O)CN2C(=O)[C@@H](c2cc(N3CCC(CN4CCC5(CC4)CC(N4CCO[C@@H](CN6C7CCC6CN(c6cc(-c8ccccc8O)nnc6N)C7)C4)C5)CC3)no2)C(C)C)cc1 [Compound 119, (2S,4R)-1-[(2R)-2-{3-[4-({2-[(2R)-2-({3-[3-amino-6-(2-hydroxyphenyl)pyridazin-4-yl]-3,8-diazabicyclo[3.2.1]octan-8-yl}methyl)morpholin-4-yl]-7-azaspiro[3.5]nonan-7-yl}methyl)piperidin-1-yl]-1,2-oxazol-5-yl}-3-methylbutanoyl]-4-hydroxy-N-[(1S)-1-[4-(4-methyl-1,3-thiazol-5-yl)phenyl]ethyl]pyrrolidine-2-carboxamide]	< 2.5 nM	> 75%

Further lines, with some results ahead:

DC50	SMILES	Dmax
≥ 30 nM	CC(C)[C@H](C(=O)N1C[C@H](O)C[C@H]1C(=O)N[C@@H](C)c1ccc(-c2ccnn2C)cc1)c1cc(N2CCC(OC3CCN(CC4CC(N5CCC([C@H](C)n6cc(C#Cc7cc(-c8ccccc8O)nnc7N)cn6)CC5)C4)CC3)CC2)no1 (stereo partly drawn) [Compound 111, (2S,4R)-1-[(2S)-2-{3-[4-({1-[(3-{4-[(1S)-1-(4-{2-[3-amino-6-(2-hydroxyphenyl)pyridazin-4-yl]ethynyl}-1H-pyrazol-1-yl)ethyl]piperidin-1-yl}cyclobutyl)methyl]piperidin-4-yl}oxy)piperidin-1-yl]-1,2-oxazol-5-yl}-3-methylbutanoyl]-4-hydroxy-N-[(1S)-1-[4-(1-methyl-1H-pyrazol-5-yl)phenyl]ethyl]pyrrolidine-2-carboxamide]	–
< 2.5 nM	CC(C)[C@@H](C(=O)N1C[C@H](O)C[C@H]1C(=O)N[C@@H](C)c1ccc(-c2ccnn2C)cc1)c1cc(N2CCC(OC3CCN(CC4CC(N5CCC([C@H](C)n6cc(C#Cc7cc(-c8ccccc8O)nnc7N)cn6)CC5)C4)CC3)CC2)no1 (stereo partly drawn) [Compound 112, (2S,4R)-1-[(2R)-2-{3-[4-({1-[(3-{4-[(1S)-1-(4-{2-[3-amino-6-(2-hydroxyphenyl)pyridazin-4-yl]ethynyl}-1H-pyrazol-1-yl)ethyl]piperidin-1-yl}cyclobutyl)methyl]piperidin-4-yl}oxy)piperidin-1-yl]-1,2-oxazol-5-yl}-3-methylbutanoyl]-4-hydroxy-N-[(1S)-1-[4-(1-methyl-1H-pyrazol-5-yl)phenyl]ethyl]pyrrolidine-2-carboxamide]	> 75%
≥ 30 nM	CC(C)[C@@H](C(=O)N1C[C@H](O)C[C@H]1C(=O)N[C@@H](C)c1ccc(-c2ccnn2C)cc1)c1cc(N2CCC(CN3CCC(O[C@H]4C[C@H](OC(=O)N5CCN(c6cc(-c7ccccc7O)nnc6N)CC5)C4)CC3)CC2)no1 [Compound 115, (1r,3r)-3-({1-[(1-{5-[(2R)-1-[(2S,4R)-4-hydroxy-2-{[(1S)-1-[4-(1-methyl-1H-pyrazol-5-yl)phenyl]ethyl]carbamoyl}pyrrolidin-1-yl]-3-methyl-1-oxobutan-2-yl]-1,2-oxazol-3-yl}piperidin-4-yl)methyl]piperidin-4-yl}oxy)cyclobutyl 4-[3-amino-6-(2-hydroxyphenyl)pyridazin-4-yl]piperazine-1-carboxylate]	–
